Assay results from patent publication US20080107609A1, “PULMONARY DISEASE TREATMENT” (Schering Corporation, priority 2003, published 2008).

Key:
[1] = test system: patients suffering from chronic obstructive pulmonary disease; test: Example 2: randomized double-blind parallel-group clinical trial of orally inhaled mometasone furoate vs placebo, FEV1 after salbutamol; format: in vivo, human; details: for ΔFEV1: corticosteroid-naive COPD patients, post-salbutamol; for mean change from baseline in ΔFEV1 over the twelve-month period: statistical analysis, increase
Description: A randomized double-blind, parallel-group clinical trial was conducted to compare the effects of orally inhaled mometasone furoate and a placebo, in patients suffering from chronic obstructive pulmonary disease. The multiple dose dry powder inhaler and placebo inhaler described in the preceding example were used for this study. A total of 769 patients met the criteria for evaluability, from 95 sites in 11 countries. The patients had not previously been treated with corticosteroids, either inhaled or orally dosed, but otherwise met the criteria of the preceding example. In the study, patients were prescribed either two inhalations from the inhaler each evening, or one inhalation each morning and one inhalation each evening, with a twelve-month treatment duration. Results of the study were as follows, where the ΔFEV1 value represents the average of differences between the patients' FEV1 scores at the beginning of the study and the FEV1 scores at the time of the subsequent measurement, with all of the FEV1 testing being performed after administration of inhaled salbutamol. For each time point, the number of patients remaining in the study is given.

[2] = test system: patients suffering from chronic obstructive pulmonary disease; test: Example 1: randomized double-blind clinical trial of orally inhaled mometasone furoate vs placebo, FEV1 after salbutamol; format: in vivo, human; details: for ΔFEV1: dry powder inhaler, COPD patients previously on inhaled corticosteroid, average change from study start, post-salbutamol
Description: A randomized, double-blind crossover clinical trial was conducted to compare the effects of orally inhaled mometasone furoate and a placebo, in patients suffering from chronic obstructive pulmonary disease. The drug was delivered from a multiple-dose dry powder inhaler charged with a mixture of mometasone furoate and lactose (having a component weight ratio of 1:5.8) in an agglomerated form. Placebo inhaler units contained only the lactose powder. The drug-containing inhalers delivered the following mean amounts of mometasone furoate particles per inhalation, as measured using an Anderson Cascade Impactor (from Thermo Anderson, Smyrna, Ga. U.S.A.) at an air flow rate through the inhaler of 60 L/minute:
Evaluable patients participating in the study numbered 578, all having been diagnosed with COPD of moderate severity, being at least 40 years of age, and also being maintained for at least three months prior to commencement of the study on daily inhalations of a corticosteroid drug (even though there was no regulatory agency-approved COPD therapy using an inhaled corticosteriod). […] The patients were enrolled at a total of 35 sites in 24 countries, and were prescribed two inhalations from the supplied inhaler device each evening for a twelve-month period, with evaluations by a physician after 1, 3, 6, 9, and 12 months of participation. A total of 294 of the patients were randomized to receive inhalers containing the drug, while 284 patients received placebo inhalers. All of the patients were permitted to further use inhaled salbutamol as needed.
Results of the study were as follows, where the ΔFEV1 value represents the average of differences between the patients' FEV1 scores at the beginning of the study and the FEV1 scores at the time of the subsequent measurement, with all of the FEV1 testing being performed after administration of inhaled salbutamol. For each time point, the number of patients remaining in the study is given.
From a statistical analysis of the data, it was determined that the mean change from baseline over the twelve-month period was an increase in ΔFEV1 of 4 mL for patients receiving the mometasone furoate, and a decrease of 36 mL for placebo patients.

`C[C@@H]1C[C@H]2[C@@H]3CCC4=CC(=O)C=C[C@]4(C)[C@@]3(Cl)[C@@H](O)C[C@]2(C)[C@@]1(OC(=O)c1ccco1)C(=O)CCl` [mometasone furoate, 9α,21-Dichloro-11β,17-dihydroxy-16α-methylpregna-1,4-diene-3,20-dione 17-(2-furoate)] was tested, and the “ΔFEV1” value ([1]; Once Daily (two inhalations each evening), 1 month) was 66 mL, the “ΔFEV1” value ([1]; Once Daily (two inhalations each evening), 3 months) was 57 mL and the “ΔFEV1” value ([1]; Once Daily (two inhalations each evening), 6 months) was 44 mL. For the same molecule, the “ΔFEV1” value ([1]; Once Daily (two inhalations each evening), 9 months) was 37 mL, the “ΔFEV1” value ([1]; Once Daily (two inhalations each evening), 12 months) was 38 mL and the “ΔFEV1” value ([1]; Twice Daily (one inhalation each morning and one each evening), 1 month) was 72 mL. For the same molecule, the “ΔFEV1” value ([1]; Twice Daily (one inhalation each morning and one each evening), 3 months) was 79 mL, the “ΔFEV1” value ([1]; Twice Daily (one inhalation each morning and one each evening), 6 months) was 36 mL and the “ΔFEV1” value ([1]; Twice Daily (one inhalation each morning and one each evening), 9 months) was 58 mL. For the same molecule, the “ΔFEV1” value ([1]; Twice Daily (one inhalation each morning and one each evening), 12 months) was 31 mL, the “mean change from baseline in ΔFEV1 over the twelve-month period” value (“mean change from baseline in ΔFEV1” for short) ([1]; dosed once daily) was 50 mL and the “mean change from baseline in ΔFEV1” value ([1]; dosed twice daily) was 53 mL. For the same molecule, the “pulmonary function over the trial period (FIG. 2)” value ([1]; twelve months, once daily and twice daily) was “generally improved their pulmonary function”, the “comparison of both mometasone furoate treatments (once and twice daily) with placebo” value ([1]; twelve-month period, ΔFEV1) was “statistically significantly superior to the placebo treatment” and the “ΔFEV1” value ([2]; 1 month, two inhalations each evening) was 5 mL. The “ΔFEV1” value ([2]; 3 months, two inhalations each evening) was 9 mL, the “ΔFEV1” value ([2]; 6 months, two inhalations each evening) was -2 mL and the “ΔFEV1” value ([2]; 9 months, two inhalations each evening) was 22 mL. For the same molecule, the “ΔFEV1” value ([2]; 12 months, two inhalations each evening) was 7 mL, the “difference between treatments (drug vs placebo) in mean ΔFEV1 change” value ([2]; longitudinal analysis of variance model, twelve-month period) was “statistically significant” and the “mean change from baseline in ΔFEV1” value ([2]; statistical analysis (longitudinal analysis of variance), two inhalations each evening, increase) was 4 mL. For the same molecule, the “pulmonary function over the trial period (FIG. 1)” value ([2]; twelve months, two inhalations each evening) was “generally maintained or slightly improved their pulmonary function”.
